Source: patent US8212031B2, “Pyrrolotriazine kinase inhibitors” (Bristol-Myers Squibb Company, priority 2008, dated 2012)

Target: IGF1-receptor (Homo sapiens, UniProt P08069)
Test: IGF1-Receptor Tyrosine Kinase Assay
Format: biochemical
Conditions: in vitro kinase assay; ATP 25 μM; FL-peptide 1.5 μM; IGF1-Receptor 14 nM; 60 min room temperature; Caliper LabChip 3000; read-out: IGF1R kinase IC50
Description: A IGF1-Receptor Tyrosine Kinase Assay
The assays were performed in U-bottom 384-well plates. The final assay volume was 30 μl prepared from 15 μl additions of enzyme and substrates (fluoresceinated IGF1R substrate peptide and ATP) and test compounds in assay buffer (100 mM HEPES pH 7.4, 10 mM MnCl2, 0.015% Brij35 and 4 mM DTT). The reaction was initiated by the combination of IGF1-receptor with substrates and test compounds. The reaction was incubated at room temperature for 60 min. and terminated by adding 30 μl of 35 mM EDTA to each sample. The reaction mixture was analyzed on the Caliper LabChip 3000 by electrophoretic separation of the fluorescent substrate and phosphorylated product Inhibition data were calculated by comparison to no enzyme control reactions for 100% inhibition and vehicle-only reactions for 0% inhibition. The final concentration of reagents in the assays are ATP, 25 μM; FL-peptide, 1.5 μM; IGF1-Receptor, 14 nM; and DMSO, 1.6%. Dose response curves were generated to determine the concentration required inhibiting 50% of kinase activity (IC50). Compounds were dissolved at 10 mM in dimethylsulfoxide (DMSO) and evaluated at eleven concentrations, each in duplicate. IC50 values were derived by non-linear regression analysis.

Sequence of IGF1-receptor (P08069 31-1367): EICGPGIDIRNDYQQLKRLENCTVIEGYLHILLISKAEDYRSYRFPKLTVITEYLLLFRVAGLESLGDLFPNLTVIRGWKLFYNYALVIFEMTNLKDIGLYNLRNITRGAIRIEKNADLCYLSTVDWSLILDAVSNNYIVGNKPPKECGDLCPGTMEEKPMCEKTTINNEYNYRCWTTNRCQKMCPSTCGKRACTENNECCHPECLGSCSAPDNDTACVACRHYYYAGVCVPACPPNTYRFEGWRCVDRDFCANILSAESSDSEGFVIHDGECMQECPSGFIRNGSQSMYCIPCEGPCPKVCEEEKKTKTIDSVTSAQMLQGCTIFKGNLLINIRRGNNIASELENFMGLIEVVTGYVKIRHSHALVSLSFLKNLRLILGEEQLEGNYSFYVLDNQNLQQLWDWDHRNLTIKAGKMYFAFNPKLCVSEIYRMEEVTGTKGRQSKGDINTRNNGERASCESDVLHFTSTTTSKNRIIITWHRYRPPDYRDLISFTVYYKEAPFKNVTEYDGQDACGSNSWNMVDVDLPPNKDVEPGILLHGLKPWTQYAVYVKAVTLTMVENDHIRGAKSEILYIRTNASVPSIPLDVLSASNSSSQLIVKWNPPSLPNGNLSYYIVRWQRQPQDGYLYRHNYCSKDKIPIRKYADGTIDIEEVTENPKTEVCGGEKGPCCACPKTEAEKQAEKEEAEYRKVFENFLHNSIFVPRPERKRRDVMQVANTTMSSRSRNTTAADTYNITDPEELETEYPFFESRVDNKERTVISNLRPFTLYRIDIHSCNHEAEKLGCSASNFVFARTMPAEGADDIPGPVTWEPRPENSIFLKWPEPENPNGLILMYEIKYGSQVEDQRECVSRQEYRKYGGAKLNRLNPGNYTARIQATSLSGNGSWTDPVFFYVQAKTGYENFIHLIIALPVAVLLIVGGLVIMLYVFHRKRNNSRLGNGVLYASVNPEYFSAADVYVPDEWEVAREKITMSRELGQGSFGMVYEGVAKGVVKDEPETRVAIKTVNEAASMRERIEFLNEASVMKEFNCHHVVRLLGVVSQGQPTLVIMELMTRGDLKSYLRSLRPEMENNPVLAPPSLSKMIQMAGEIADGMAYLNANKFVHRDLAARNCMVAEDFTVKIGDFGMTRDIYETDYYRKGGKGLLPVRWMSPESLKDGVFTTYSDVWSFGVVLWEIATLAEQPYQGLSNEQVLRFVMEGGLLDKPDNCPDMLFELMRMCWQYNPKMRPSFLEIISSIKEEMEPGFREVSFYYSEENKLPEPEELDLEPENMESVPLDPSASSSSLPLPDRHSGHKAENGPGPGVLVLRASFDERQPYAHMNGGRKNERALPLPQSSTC

IC50 [nM]	SMILES
2	O=C(Nc1nccs1)N1CCCCN1c1nc(Nc2cc(C3CC3)n[nH]2)c2cccn2n1 [Example 3]
62	O=C(c1nccs1)N1CCCCN1c1nc(Nc2cc(C3CC3)n[nH]2)c2cccn2n1 [Example 4]
20	O=C(Nc1ccc(F)nc1)N1CCCCN1c1nc(Nc2cc(C3CC3)n[nH]2)c2cccn2n1 [Example 2]
